Data: patent US8513275B2 (Salix Pharmaceuticals, Ltd, priority 2010, dated 2013)
“Also recorded” adds a separate entry of the source. Like-named read-outs stand apart in the source and are kept apart here. Marks after values point to notes of the source that are not given here. Values belong to the compound of their own block, whether it stands above or below them.

Tests used:
[1] = Particle size distributions for Rifaximin forms; assay type: physicochemical; settings: for d10: 10% of the total volume of particles less than the indicated size; for d50: 50% of the total volume of particles less than the indicated size; for d90: 90% of the total volume of particles less than the indicated size
[2] = Ambient storage / exposure to ambient conditions, XRPD; assay type: physicochemical; settings: for XRPD result after ambient storage: 8 days of ambient storage, large-scale sample
Text: Form θ drying and physical stability evaluation was not formally included in the protocol. […] The initial sample was generated from nitrogen drying of Form ζ. The initial XRPD pattern was acquired utilizing parameters not consistent with the other data acquisition.

[3] = Relative humidity stressing at ambient temperature, XRPD of stressed solid; assay type: physicochemical
[4] = Dynamic vapor sorption (moisture sorption, moisture balance) with post-sorption XRPD; assay type: physicochemical; settings: for weight loss from 95 to 5% RH: desorption 95-5% RH; for post-moisture sorption (post-MB / post-DVS) XRPD result: solid after DVS cycle; for weight gain from 5 to 95% RH: sorption 5-95% RH; for overall weight loss in moisture sorption: whole sorption/desorption cycle
Method: (§1) Automated vapor sorption (VS) data were collected on a VTI SGA-100 Vapor Sorption Analyzer. NaCl and PVP were used as calibration standards. Samples were not dried prior to analysis. […] The equilibrium criterion used for analysis was less than 0.0100% weight change in 5 minutes with a maximum equilibration time of 3 hours. Data were not corrected for the initial moisture content of the samples.
as §1, with “Automated dynamic” for “Automated”, “(DVS)” for “(VS)”, “hours.” for “hours. Data were not corrected for the initial moisture content of the samples.”

[5] = VS w/ACN
Method: Subsequent characterization of cocrystal 2 was conducted quickly after isolating vapor stressed samples.
The 20-mL vial was capped and left at ambient conditions for vapor stress.

[6] = 1000 psi, 1 min.
[7] = Properties of the Rifaximin:piperazine cocrystals (summary, Table 12); settings: summary column of Table 12
[8] = water slurry, 5 minutes, 3 hours and 7 hours
Method: In order to be able to measure the aqueous solubility (equilibrium or kinetic) of a cocrystal, it should remain intact upon exposure to aqueous conditions for some duration. If it dissociates or changes forms quickly upon contact with water, intrinsic dissolution may be introduced as an alternative to solubility, in which dissolution of a pellet of the cocrystal is measured; however, the cocrystal must not change form upon compression.

[9] = listed as post-drying rifaximin Form κ
[10] = listed as As-Prepared Rifaximin Form κ

- d10 [1]: 3.857 μm
- d50 [1]: 79.844 μm
- d90 [1]: 290.353 μm
SMILES: CO[C@H]1/C=C/O[C@@]2(C)Oc3c(C)c(O)c4c(O)c(c5c(nc6cc(C)ccn65)c4c3C2=O)NC(=O)/C(C)=C\C=C\[C@H](C)[C@H](O)[C@@H](C)[C@@H](O)[C@@H](C)[C@H](OC(C)=O)[C@@H]1C [η, rifaximin]

- weight loss from 95 to 5% RH ([4]; listed as Rifaximin Form θ): 5.826% wt lost from 95%-5% RH
- weight loss from 95 to 5% RH ([4]; listed as rifaximin Form θ): 5.8%
- weight loss upon equilibration at 5% RH ([4]; initial equilibration at 5% RH, listed as rifaximin Form θ): 7.3%
- post-moisture sorption (post-MB / post-DVS) XRPD result ([4]; listed as Rifaximin Form θ): ι
- post-moisture sorption (post-MB / post-DVS) XRPD result ([4]; listed as rifaximin Form θ): Form ι; also recorded: Form t
- weight gain from 5 to 95% RH ([4]; listed as Rifaximin Form θ): 5.733% wt gain from 5%-95% RH
- weight gain from 5 to 95% RH ([4]; listed as rifaximin Form θ): 5.7%
- overall weight loss in moisture sorption ([4]; listed as rifaximin Form θ): approximately 7.4%
- XRPD result after ambient storage [2]: remained Form θ
- XRPD result after ambient storage ([2]; listed as Rifaximin Form θ): θ (after 8 days of ambient storage)
- XRPD result on reanalysis ([2]; reanalyzed within hours, nitrogen-dried sample): conversion to Form ι
SMILES: CO[C@H]1/C=C/O[C@@]2(C)Oc3c(C)c(O)c4c(O)c(c5c(nc6cc(C)ccn65)c4c3C2=O)NC(=O)/C(C)=C\C=C\[C@H](C)[C@H](O)[C@@H](C)[C@@H](O)[C@@H](C)[C@H](OC(C)=O)[C@@H]1C [Form θ, rifaximin]
- wt change upon equilibration at 5% RH ([4]; signed change, initial equilibration at 5% RH): −7.314% wt change upon equilibration at 5% RH

- d10 [1]: 15.551 μm
- d50 [1]: 90.684 μm
- d90 [1]: 225.815 μm
- weight loss from 95 to 5% RH [4, 10]: 12% wt loss from 95 to 5% RH.
- weight loss from 95 to 5% RH ([4]; listed as rifaximin Form κ): 12%
- weight loss upon equilibration at 5% RH ([4]; initial equilibration at 5% RH, listed as As-Prepared Rifaximin Form κ): 7.5% wt loss upon equilibration at 5% RH
- weight loss upon equilibration at 5% RH ([4]; initial equilibration at 5% RH, listed as rifaximin Form κ): 7.5%
- post-moisture sorption (post-MB / post-DVS) XRPD result [4, 10]: Disordered
- post-moisture sorption (post-MB / post-DVS) XRPD result ([4]; listed as rifaximin Form κ): disordered
- weight gain from 5 to 95% RH [4, 10]: 4.6% wt gain from 5 to 95% RH
- weight gain from 5 to 95% RH ([4]; listed as rifaximin Form κ): 4.6%
- overall weight loss in moisture sorption ([4]; listed as rifaximin Form κ): approximately 14.9%
SMILES: CO[C@H]1/C=C/O[C@@]2(C)Oc3c(C)c(O)c4c(O)c(c5c(nc6cc(C)ccn65)c4c3C2=O)NC(=O)/C(C)=C\C=C\[C@H](C)[C@H](O)[C@@H](C)[C@@H](O)[C@@H](C)[C@H](OC(C)=O)[C@@H]1C [Form κ, rifaximin]
- overall weight loss in moisture sorption [4, 10]: Overall wt loss = 14. 9% (equivalent to ~2 moles of IPA)

Further lines, the compound ahead of its results:

SMILES: CO[C@H]1/C=C/O[C@@]2(C)Oc3c(C)c(O)c4c(O)c(c5c(nc6cc(C)ccn65)c4c3C2=O)NC(=O)/C(C)=C\C=C\[C@H](C)[C@H](O)[C@@H](C)[C@@H](O)[C@@H](C)[C@H](OC(C)=O)[C@@H]1C [As received, rifaximin]
- d10 [1]: 0.399 μm
- d50 [1]: 8.629 μm
- d90 [1]: 33.891 μm

SMILES: C1CNCCN1.CC#N.COC1C=COC2(C)Oc3c(C)c(O)c4c(O)c(c5c(nc6cc(C)ccn65)c4c3C2=O)NC(=O)C(C)=CC=CC(C)C(O)C(C)C(O)C(C)C(OC(C)=O)C1C.COC1C=COC2(C)Oc3c(C)c(O)c4c(O)c(c5c(nc6cc(C)ccn65)c4c3C2=O)NC(=O)C(C)=CC=CC(C)C(O)C(C)C(O)C(C)C(OC(C)=O)C1C (stereo not drawn) [cocrystal 2, rifaximin:piperazine cocrystal 2]
- behaviour upon exposure to ambient conditions [2]: rapidly desolvates
- form conversion after exposure to ambient conditions ([2]; longer exposure (ex. 12 days)): conversion to material similar to cocrystal 1, but exhibiting broad peaks with additional peaks at approximately 5 and 17°2θ
- form conversion after exposure to ambient conditions ([2]; relatively short exposure (ex. 5-6 hours)): convert to cocrystal 1

SMILES: CO[C@H]1/C=C/O[C@@]2(C)Oc3c(C)c(O)c4c(O)c(c5c(nc6cc(C)ccn65)c4c3C2=O)NC(=O)/C(C)=C\C=C\[C@H](C)[C@H](O)[C@@H](C)[C@@H](O)[C@@H](C)[C@H](OC(C)=O)[C@@H]1C [Post-Drying Rifaximin Form κ, rifaximin]
- XRPD result after humidity stress ([3]; 84% RH, RT, 19 days): Disordered κ
- weight loss from 95 to 5% RH [4]: 11.0% wt lost from 95%-5% RH
- weight loss from 95 to 5% RH [4, 9]: 11%
- weight loss upon equilibration at 5% RH ([4]; initial equilibration at 5% RH): 0.1% wt loss upon equilibration at 5% RH
- weight loss upon equilibration at 5% RH ([4]; initial equilibration at 5% RH, listed as post-drying rifaximin Form κ): 0.1%
- post-moisture sorption (post-MB / post-DVS) XRPD result [4]: Disordered κ
- post-moisture sorption (post-MB / post-DVS) XRPD result [4, 9]: disordered
- weight gain from 5 to 95% RH [4]: 7.7% wt gain from 5%-95% RH
- weight gain from 5 to 95% RH [4, 9]: 7.7%
- overall weight loss in moisture sorption [4]: approximately 3.3%

SMILES: C1CNCCN1.COC1C=COC2(C)Oc3c(C)c(O)c4c(O)c(c5c(nc6cc(C)ccn65)c4c3C2=O)NC(=O)C(C)=CC=CC(C)C(O)C(C)C(O)C(C)C(OC(C)=O)C1C.COC1C=COC2(C)Oc3c(C)c(O)c4c(O)c(c5c(nc6cc(C)ccn65)c4c3C2=O)NC(=O)C(C)=CC=CC(C)C(O)C(C)C(O)C(C)C(OC(C)=O)C1C (stereo not drawn) [cocrystal 1, rifaximin:piperazine cocrystal 1]
- XRPD result after vapor stress with ACN ([5]; 7 days): conversion to cocrystal 2
- XRPD result after vapor stress with ACN ([5]; 7 days, listed as Cocrystal 1): Cocrystal 2 resulted by XRPD
- XRPD result after vapor stress with ACN ([5]; 7 days, listed as Rifaximin:Piperazine Cocrystal 1): cocrystal 2^c
- XRPD result after vapor stress with ACN ([5]; 24 days, sample stood capped at ambient approx. 5-6 hours before XRPD): gave cocrystal 1 by XRPD
- XRPD result after vapor stress with ACN ([5]; 24 days, sample stood capped at ambient approx. 5-6 hours before XRPD, listed as Rifaximin:Piperazine Cocrystal 1): cocrystal 1^b
- XRPD result after RH stress ([3]; ~75% RH, 1 week): broad peaks, similar to cocrystal 1+ peak at ˜5°2θ
- XRPD result after RH stress ([3]; ~75% RH, 1 week, listed as Cocrystal 1): broad peaks, similar to cocrystal 1 with an additional peak at approximately 5°2θ
- XRPD result after RH stress ([3]; ~75% RH, 2 weeks): broad peaks, similar to cocrystal 1+ peak at ˜5°2θ
- XRPD result after RH stress ([3]; ~75% RH, 2 weeks, listed as Cocrystal 1): broad peaks, similar to cocrystal 1 with an additional peak at approximately 5°2θ
- XRPD result after RH stress ([3]; ~75% RH, 3 days): broad peaks, similar to cocrystal 1+ peak at ˜5°2θ
- XRPD result after RH stress ([3]; ~75% RH, 3 days, listed as Cocrystal 1): broad peaks, similar to cocrystal 1 with an additional peak at approximately 5°2θ
- XRPD result after RH stress ([3]; ~97% RH, 1 week, listed as Cocrystal 1): Conversion to Rifaximin Form β-1
- XRPD result after RH stress ([3]; ~97% RH, 1 week, listed as Rifaximin:Piperazine Cocrystal 1): API, Form β-1
- XRPD result after RH stress ([3]; ~97% RH, 3 days, listed as Cocrystal 1): conversion to Rifaximin Form β-1
- XRPD result after RH stress ([3]; ~97% RH, 3 days, listed as Rifaximin:Piperazine Cocrystal 1): API, Form β-1
- XRPD result after compression [6]: additional peaks at approximately 5 and 17°2θ were observed by XRPD, and the material was low crystalline
- Properties (hygroscopicity, stability) [7]: likely falls apart upon heating; also recorded: hygroscopic
- hygroscopicity by DVS [4]: quite hygroscopic
- weight loss from 95 to 5% RH ([4]; listed as sample 4): 11.47% weight loss from 95-5% RH
- weight loss upon equilibration at 5% RH ([4]; initial equilibration at 5% RH): 3.54% weight loss at 5% RH
- post-moisture sorption (post-MB / post-DVS) XRPD result [4]: broad peaks, similar to cocrystal 1 with additional peaks at approximately 5 and 17°2θ; also recorded: broad peaks, similar to cocrystal 1 plus peaks at approximately 5 and 17°2θ
- post-moisture sorption (post-MB / post-DVS) XRPD result ([4]; listed as Cocrystal 1): conversion to a material similar to cocrystal 1 plus two additional peaks
- weight gain from 5 to 95% RH ([4]; listed as sample 4): 10.78% weight gain from 5-95% RH
- XRPD result after slurrying in water ([8]; listed as Rifaximin:Piperazine Cocrystal 1): API, Form β-1
- XRPD result after slurrying in water ([8]; listed as Rifaximin:piperazine cocrystal 1): conversion to Rifaximin Form β-1
